According to patent US12606567B2, “Salts and forms of a WEE1 inhibitor” (Recurium IP Holdings, LLC, priority 2020, dated 2026):
Converted amounts (≈) assume the structure as drawn. Where a name gives a salt, the structure may show the parent alone.

Tests used:
Format in all cases: physicochemical
[1] = Solid-state stability of the forms under storage (HPLC purity, XRPD form); details: for Form change on storage: all tested stability conditions
Experimental: It only slightly degraded at 60° C. after 2 weeks and at 80° C. after 3 days.

[2] = Hygroscopicity by DVS isotherm at 25° C. between 0% RH and 95% RH, XRPD after DVS; details: for Water uptake (DVS): 25° C./80% RH; for Form change after DVS test (XRPD): after DVS at 25° C., 0% RH-95% RH
Experimental: DVS data was measured via a SMS (Surface Measurement Systems) DVS Intrinsic. The relative humidity at 25° C. was calibrated against the deliquescence point of LiCl, Mg(NO3)2 and KCl.

[3] = Equilibrium solubility in SGF, H2O, FaSSIF and FeSSIF, slurry at 37° C. for 24 hrs; details: for Solubility / pH of supernatant / Form of residual solid (XRPD): 37° C., 24 hrs
Experimental: About 10-50 mg of each sample was weighed into 1.0 mL of each medium followed by slurry at 37° C. for 24 hrs. The samples were centrifuged and filtered using 0.45 μm PTFE filter. The solids were tested by XRPD and the supernatants were tested by HPLC and pH.

[4] = Thermodynamic stability compared with the amorphous freebase (TGA); details: compared with amorphous freebase of Compound A
Experimental: The TGA curve of the amorphous freebase of Compound A indicated a substantial and gradual weight loss starting at 30° C. and continuing to 150° C. with a total of about 17% loss.
TGA data were collected using a TA Q5000/Discovery 5500 TGA from TA Instruments. DSC was performed using a TA Q2000/Discovery 2500 DSC from TA Instruments.

[5] = Initial, for the 25° C./60% RH, 40° C./75% RH and 60° C. series

C=CCn1c(=O)c2cnc(Nc3ccc(N4CCN(C)CC4)cc3)nc2n1-c1ccc2c(n1)[C@@](O)(CC)CC2 [Adipate salt Form A]
Solid state stability ([1]; 4 weeks at 25° C./60% RH and 40° C./75% RH, 2 weeks at 60° C., 3 days at 80° C.): stable
Purity (area %) ([1]; 25° C./60% RH, 2 week): 98.85 area %
Purity/Initial (%) ([1]; 25° C./60% RH, 2 week): 100.1%
Purity (area %) ([1]; 25° C./60% RH, 4 week): 98.91 area %
Purity/Initial (%) ([1]; 25° C./60% RH, 4 week): 100.2%
Purity (area %) ([1]; 40° C./75% RH, 2 week): 98.82 area %
Purity/Initial (%) ([1]; 40° C./75% RH, 2 week): 100.1%
Purity (area %) ([1]; 40° C./75% RH, 4 week): 98.85 area %
Purity/Initial (%) ([1]; 40° C./75% RH, 4 week): 100.1%
Purity (area %) ([1]; 60° C., 2 week): 98.25 area %
Purity/Initial (%) ([1]; 60° C., 2 week): 99.5%
Purity (area %) ([1]; 60° C., 4 week): 97.80 area %
Purity/Initial (%) ([1]; 60° C., 4 week): 99.1%
Purity (area %) ([1]; 80° C., 1 day): 99.02 area %
Purity/Initial (%) ([1]; 80° C., 1 day): 100.0%
Purity (area %) ([1]; 80° C., 3 day): 98.77 area %
Purity/Initial (%) ([1]; 80° C., 3 day): 99.7%
Purity (area %) ([1]; 80° C., 7 day): 98.44 area %
Purity/Initial (%) ([1]; 80° C., 7 day): 99.4%
Purity (area %) [1, 5]: 98.72 area %
Purity (area %) ([1]; Initial, for the 80° C. series): 99.03 area %
Degradation ([1]; after 4 weeks at 60° C.): 0.9%
Degradation ([1]; after 7 days at 80° C.): 0.6%
Form change on storage [1]: no form change
Water uptake (DVS) [2]: 2.2%
Form change after DVS test (XRPD) [2]: No form change
Solubility ([3]; FaSSIF): 30.8 mg/mL
pH of supernatant ([3]; FaSSIF): 4.8
Form of residual solid (XRPD) ([3]; FeSSIF): Adipate Salt Form A
Solubility ([3]; FeSSIF): 5.6 mg/mL
pH of supernatant ([3]; FeSSIF): 4.8
Form of residual solid (XRPD) ([3]; H2O): Adipate Salt Form A
Solubility ([3]; H2O): 25.5 mg/mL
pH of supernatant ([3]; H2O): 4.7
Form of residual solid (XRPD) ([3]; SGF): Adipate Salt Form A
Solubility ([3]; SGF): 34.1 mg/mL
pH of supernatant ([3]; SGF): 4.4
Solubility comparison ([3]; SGF, H2O, FaSSIF, FeSSIF): higher solubility than freebase Form E of Compound A
Thermodynamic stability [4]: more thermodynamically stable than the amorphous freebase

C=CCn1c(=O)c2cnc(Nc3ccc(N4CCN(C)CC4)cc3)nc2n1-c1ccc2c(n1)[C@@](O)(CC)CC2 [Freebase Form E]
Solid state stability ([1]; 4 weeks at 25° C./60% RH, 40° C./75% RH and 60° C., 7 days at 80° C.): stable
Purity (area %) ([1]; 25° C./60% RH, 2 week): 99.37 area %
Purity/Initial (%) ([1]; 25° C./60% RH, 2 week): 100.0%
Purity (area %) ([1]; 25° C./60% RH, 4 week): 99.39 area %
Purity/Initial (%) ([1]; 25° C./60% RH, 4 week): 100.0%
Purity (area %) ([1]; 40° C./75% RH, 2 week): 99.45 area %
Purity/Initial (%) ([1]; 40° C./75% RH, 2 week): 100.1%
Purity (area %) ([1]; 40° C./75% RH, 4 week): 99.45 area %
Purity/Initial (%) ([1]; 40° C./75% RH, 4 week): 100.1%
Purity (area %) ([1]; 60° C., 2 week): 99.35 area %
Purity/Initial (%) ([1]; 60° C., 2 week): 100.0%
Purity (area %) ([1]; 60° C., 4 week): 99.16 area %
Purity/Initial (%) ([1]; 60° C., 4 week): 99.8%
Purity (area %) ([1]; 80° C., 1 day): 99.48 area %
Purity/Initial (%) ([1]; 80° C., 1 day): 100.0%
Purity (area %) ([1]; 80° C., 3 day): 99.31 area %
Purity/Initial (%) ([1]; 80° C., 3 day): 99.9%
Purity (area %) ([1]; 80° C., 7 day): 99.12 area %
Purity/Initial (%) ([1]; 80° C., 7 day): 99.7%
Purity (area %) [1, 5]: 99.35 area %
Purity (area %) ([1]; Initial, for the 80° C. series): 99.44 area %
Form change on storage [1]: no form change
Water uptake (DVS) ([2]; listed as freebase Form E of Compound A): 0.6%
Form change after DVS test (XRPD) [2]: No form change
Form of residual solid (XRPD) ([3]; FaSSIF): Freebase Form E
Solubility ([3]; FaSSIF): 1.4 mg/mL (≈ 2.66 mM)
pH of supernatant ([3]; FaSSIF): 6.8
Form of residual solid (XRPD) ([3]; FeSSIF): Amorphous
Solubility ([3]; FeSSIF): 2.6 mg/mL (≈ 4.94 mM)
pH of supernatant ([3]; FeSSIF): 5.4
Form of residual solid (XRPD) ([3]; H2O): Freebase Form E
Solubility ([3]; H2O): 0.099 mg/mL (≈ 0.188 mM)
pH of supernatant ([3]; H2O): 8.4
Form of residual solid (XRPD) ([3]; SGF): Freebase Form E
Solubility ([3]; SGF): 9.0 mg/mL (≈ 17.1 mM)
pH of supernatant ([3]; SGF): 6.6
Thermodynamic stability [4]: more thermodynamically stable than the amorphous freebase

C=CCn1c(=O)c2cnc(Nc3ccc(N4CCN(C)CC4)cc3)nc2n1-c1ccc2c(n1)[C@@](O)(CC)CC2 [freebase Form J]
Thermodynamic stability [4]: more thermodynamically stable than the amorphous freebase
